How the values were obtained:
human PBMCs = test: Human PBMC cytokine response assay (IFN-γ and IFN-α in cell-free medium by ELISA), with or without cPLGA; format: cell-based;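 for IFN-α (pg/ml) mean: 20 µg/mL compound for 24 hours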;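 for IFN-γ (pg/ml) mean: 20 µg/mL compound for 24 hours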
CD19+ B cells = test: Human B cell proliferation assay (3H-thymidine incorporation); conditions: B cells, 2 μg/ml, Experiment B
[1] = donor 28066, 20 ug/ml, 24 h, + PLGA = premixed with 100 μg/ml cPLGA
[2] = donor 28067, 20 ug/ml, 24 h, + PLGA = premixed with 100 μg/ml cPLGA
[3] = donor 28068, 20 ug/ml, 24 h, + PLGA = premixed with 100 μg/ml cPLGA
[4] = mean of donors 28065-28068, 20 ug/ml, 24 h, + PLGA = premixed with 100 μg/ml cPLGA
[5] = Table 24, mean of donors 28234-28237
[6] = Table 25, mean of donors 28250-28253
[7] = mean of donors 110, 112, 119, 120, Table 14
[8] = mean of donors 28057-28060, Table 16

In the case of “5′-ACGTTCG-3′-HEG-5′-ACGTTCG-3′-HEG-5′-AGATGAT-3′ [Compound C-24]”, the IFN-α (human PBMCs; Table 10, donor 28042) is reported as 0 pg/mL, the IFN-γ (human PBMCs; Table 10, donor 28042) is reported as 148 pg/mL and the IFN-α (human PBMCs; Table 10, donor 28043) is reported as 0 pg/mL. For the same substance, the IFN-γ (human PBMCs; Table 10, donor 28043) was 156 pg/mL, the IFN-α (human PBMCs; Table 10, donor 28044) was 8 pg/mL and the IFN-γ (human PBMCs; Table 10, donor 28044) was 312 pg/mL. The IFN-α (human PBMCs; Table 10, donor 28045) was 0 pg/mL, the IFN-γ (human PBMCs; Table 10, donor 28045) was 26 pg/mL and the IFN-α mean (human PBMCs; Table 10, mean of donors) was 2 pg/mL. For the same substance, the IFN-γ mean (human PBMCs; Table 10, mean of donors) was 161 pg/mL, the “IFN-γ (pg/ml) 28065” value (human PBMCs; donor 28065 (high background), 20 ug/ml, 24 h, + PLGA = premixed with 100 μg/ml cPLGA, 1000 = outside assay limits) was 337 pg/mL and the “IFN-α (pg/ml) 28065” value (human PBMCs; donor 28065, 20 ug/ml, 24 h, + PLGA = premixed with 100 μg/ml cPLGA) was 28 pg/mL. The “IFN-α (pg/ml) 28066” value (human PBMCs; [1]) was 0 pg/mL, the “IFN-γ (pg/ml) 28066” value (human PBMCs; [1]) was 2 pg/mL and the “IFN-α (pg/ml) 28067” value (human PBMCs; [2]) was 8 pg/mL. For the same substance, the “IFN-γ (pg/ml) 28067” value (human PBMCs; [2]) was 4 pg/mL, the “IFN-α (pg/ml) 28068” value (human PBMCs; [3]) was 67 pg/mL and the “IFN-γ (pg/ml) 28068” value (human PBMCs; [3]) was 116 pg/mL. For the same substance, the “IFN-α (pg/ml) mean” value (human PBMCs; [4]) was 26 pg/mL, the “IFN-γ (pg/ml) mean” value (human PBMCs; [4]) was 115 pg/mL and the cpm1 (CD19+ B cells; donor 121) was 8206 cpm. It also gave a cpm2 (CD19+ B cells; donor 121) of 6789 cpm, a cpm3 (CD19+ B cells; donor 121) of 2799 cpm and a mean cpm (CD19+ B cells; donor 121 mean) of 5931 cpm. The cpm1 (CD19+ B cells; donor 194) was 3979 cpm, the cpm2 (CD19+ B cells; donor 194) was 3407 cpm and the cpm3 (CD19+ B cells; donor 194) was 3468 cpm. It also gave a mean cpm (CD19+ B cells; donor 194 mean) of 3618 cpm and a mean of both (CD19+ B cells; mean of donors 121 and 194) of 4775 cpm.

“5′-TCGAACGTTCGA-3′ (SEQ ID NO: 155) (listed as DNA, chemistry not fully specified) [Compound P-17, reference compound]” was tested, and the IFN-α (human PBMCs; Example 58, 0.8 ug/ml, donor 1) was 52 pg/mL, the IFN-α (human PBMCs; Example 58, 0.8 ug/ml, donor 2) was 105 pg/mL and the IFN-α (human PBMCs; Example 58, 0.8 ug/ml, donor 3) was 52 pg/mL. For the same substance, the IFN-α (human PBMCs; Example 58, 0.8 ug/ml, donor 4) was 286 pg/mL, the IFN-α mean (human PBMCs; Example 58, 0.8 ug/ml, mean of four individuals) was 124 pg/mL and the IFN-α (human PBMCs; Example 58, 4 ug/ml, donor 1) was 9154 pg/mL. For the same substance, the IFN-α (human PBMCs; Example 58, 4 ug/ml, donor 2) was 10388 pg/mL, the IFN-α (human PBMCs; Example 58, 4 ug/ml, donor 3) was 531 pg/mL and the IFN-α (human PBMCs; Example 58, 4 ug/ml, donor 4) was 837 pg/mL. For the same substance, the IFN-α mean (human PBMCs; Example 58, 4 ug/ml, mean of four individuals) was 5228 pg/mL, the IFN-α (human PBMCs; Example 58, 20 ug/ml, donor 1) was 1022 pg/mL and the IFN-α (human PBMCs; Example 58, 20 ug/ml, donor 2) was 1792 pg/mL. The IFN-α (human PBMCs; Example 58, 20 ug/ml, donor 3) was 52 pg/mL, the IFN-α (human PBMCs; Example 58, 20 ug/ml, donor 4) was 52 pg/mL and the IFN-α mean (human PBMCs; Example 58, 20 ug/ml, mean of four individuals) was 729 pg/mL.

With “5′-TCGACGT-3′-HEG-5′-TCGACGT-3′-HEG-5′-TCGACGT-3′-HEG-5′-TCGACGT-3′ [Compound C-71]” the IFN-α (human PBMCs; Table 24, donor 28234) was 17 pg/mL, the IFN-γ (human PBMCs; Table 24, donor 28234) was 30 pg/mL and the IFN-α (human PBMCs; Table 24, donor 28235) was 30 pg/mL. It also gave an IFN-γ (human PBMCs; Table 24, donor 28235) of 168 pg/mL, an IFN-α (human PBMCs; Table 24, donor 28236) of 538 pg/mL and an IFN-γ (human PBMCs; Table 24, donor 28236) of 448 pg/mL. It also gave an IFN-α (human PBMCs; Table 24, donor 28237) of 1665 pg/mL, an IFN-γ (human PBMCs; Table 24, donor 28237) of 1663 pg/mL and an IFN-α mean (human PBMCs; [5]) of 563 pg/mL. For the same substance, the IFN-γ mean (human PBMCs; [5]) was 577 pg/mL.

In the case of “5′-TCGTCGA-3′-C3-5′-TCGTCGA-3′-C3-5′-TCGTCGA-3′ [Compound C-90]”, the IFN-α (human PBMCs; Table 24, donor 28234) is reported as 16 pg/mL, the IFN-γ (human PBMCs; Table 24, donor 28234) is reported as 7 pg/mL and the IFN-α (human PBMCs; Table 24, donor 28235) is reported as 46 pg/mL. It also gave an IFN-γ (human PBMCs; Table 24, donor 28235) of 118 pg/mL, an IFN-α (human PBMCs; Table 24, donor 28236) of 117 pg/mL and an IFN-γ (human PBMCs; Table 24, donor 28236) of 497 pg/mL. The IFN-α (human PBMCs; Table 24, donor 28237) was 345 pg/mL, the IFN-γ (human PBMCs; Table 24, donor 28237) was 1586 pg/mL and the IFN-α mean (human PBMCs; [5]) was 131 pg/mL. For the same substance, the IFN-γ mean (human PBMCs; [5]) was 552 pg/mL and the “IFN-γ induction, in words” value (human PBMCs; used alone) was “similar”.

“5′-TCGAGAT-3′-HEG-5′-TCGAGAT-3′-HEG-5′-TCGAGAT-3′ [Compound C-45]” showed an IFN-α (human PBMCs; Table 10, donor 28042) of 62 pg/mL, an IFN-γ (human PBMCs; Table 10, donor 28042) of 590 pg/mL and an IFN-α (human PBMCs; Table 10, donor 28043) of 123 pg/mL. For the same substance, the IFN-γ (human PBMCs; Table 10, donor 28043) was 1466 pg/mL, the IFN-α (human PBMCs; Table 10, donor 28044) was 152 pg/mL and the IFN-γ (human PBMCs; Table 10, donor 28044) was 984 pg/mL. It also gave an IFN-α (human PBMCs; Table 10, donor 28045) of 14 pg/mL, an IFN-γ (human PBMCs; Table 10, donor 28045) of 253 pg/mL and an IFN-α mean (human PBMCs; Table 10, mean of donors) of 88 pg/mL. It also gave an IFN-γ mean (human PBMCs; Table 10, mean of donors) of 823 pg/mL, an IFN-a (human PBMCs; Table 25, donor 28250) of 16 pg/mL and an IFN-g (human PBMCs; Table 25, donor 28250, polynucleotides/spacers at amounts equivalent to the CIC, spacers alone 9 uM) of 107 pg/mL. It also gave an IFN-a (human PBMCs; Table 25, donor 28251) of 109 pg/mL, an IFN-g (human PBMCs; Table 25, donor 28251) of 26 pg/mL and an IFN-a (human PBMCs; Table 25, donor 28252) of 55 pg/mL. The IFN-g (human PBMCs; Table 25, donor 28252) was 95 pg/mL, the IFN-a (human PBMCs; Table 25, donor 28253) was 382 pg/mL and the IFN-g (human PBMCs; Table 25, donor 28253) was 8 pg/mL. For the same substance, the IFN-a mean (human PBMCs; [6]) was 140 pg/mL, the IFN-g mean (human PBMCs; [6]) was 59 pg/mL and the “IFN-α” value (human PBMCs; donor 110, Table 14) was 446 pg/mL. For the same substance, the “IFN-γ” value (human PBMCs; donor 110, Table 14) was 880 pg/mL, the “IFN-α” value (human PBMCs; donor 112, Table 14) was 130 pg/mL and the “IFN-γ” value (human PBMCs; donor 112, Table 14) was 192 pg/mL. The “IFN-α” value (human PBMCs; donor 119, Table 14) was 1074 pg/mL, the “IFN-γ” value (human PBMCs; donor 119, Table 14) was 52 pg/mL and the “IFN-α” value (human PBMCs; donor 120, Table 14) was 428 pg/mL. The “IFN-γ” value (human PBMCs; donor 120, Table 14) was 36 pg/mL, the “IFN-α (pg/ml) mean” value (human PBMCs; [7]) was 520 pg/mL and the “IFN-γ (pg/ml) mean” value (human PBMCs; [7]) was 290 pg/mL. For the same substance, the “IFN-α induction, in words” value (human PBMCs; used alone) was “generated more IFN-α than CICs containing a 5′-TCGT-3′”.

With “5′-TCGTCG-3′-(HME)15-5′-T-3′ [Compound C-14]” the “IFN-α” value (human PBMCs; donor 28057, Table 16) was 0 pg/mL, the “IFN-γ” value (human PBMCs; donor 28057, Table 16) was 3 pg/mL and the “IFN-α” value (human PBMCs; donor 28058, Table 16) was 0 pg/mL. For the same substance, the “IFN-γ” value (human PBMCs; donor 28058, Table 16) was 1 pg/mL, the “IFN-α” value (human PBMCs; donor 28059, Table 16) was 0 pg/mL and the “IFN-γ” value (human PBMCs; donor 28059, Table 16) was 1 pg/mL. For the same substance, the “IFN-α” value (human PBMCs; donor 28060, Table 16) was 0 pg/mL, the “IFN-γ” value (human PBMCs; donor 28060, Table 16) was 3 pg/mL and the “activity when formulated with cPLGA, in words” value (human PBMCs; formulated with cPLGA) was “all had significant activity when formulated on cPLGA”. For the same substance, the “IFN-α (pg/ml) mean” value (human PBMCs; [8]) was 0 pg/mL, the “IFN-γ (pg/ml) mean” value (human PBMCs; [8]) was 2 pg/mL and the “immunomodulatory activity (IFN-γ / IFN-α secretion), in words” value (human PBMCs; used alone (no cPLGA)) was “None of the CICs was active when used alone”.

Source: patent US9028845B2, “Chimeric immunomodulatory compounds and methods of using the same-IV” (Dynavax Technologies Corporation, priority 2001, dated 2015)
